Results reported in patent US20160113931A1, “Method of treating and/or preventing neurodegenerative diseases” (University of Macau, priority 2014, published 2016).
“Also recorded” adds a separate entry of the source.

What was measured:
[1] = tested on: oligodendroglial progenitor cells (OPCs); assay: OPC proliferation (EdU incorporation assay and Ki67 immunostaining); assay type: cell-based, rat; settings: 2 days
Description: FIGS. 10A, 10B and 10C show the effects of BHDPC in oligodendroglial progenitor cells (OPCs) proliferation. OPCs were incubated with the drugs at indicated concentrations in proliferation medium for 2 days. (FIG. 10A) The cell viability was measured by MTT assay.
Purified OPC cultures were prepared as described. In brief, primary rat mixed glial cell cultures were isolated from whole brains of postnatal day (P) 2 rats, dissociated into single cells, and cultured into poly-D-lysine (PDL) coated T75 tissue culture flasks. Plating medium consisted of Dulbecco's modified Eagle's medium (DMEM, Invitrogen, Carlsbad, Calif.) supplemented with 10% fetal bovine serum (FBS; Invitrogen, Carlsbad, Calif.), […]. Tissue cultures were maintained at 37° C. in a humidified 5% CO2 incubator, and medium was exchanged every 3 days. Once confluent (after 10-15 days), microglia were separated by mechanical shaking of flasks on a rotary shaker for […] at 250 rpm and removed. […]
OPC was incubated with BHDPC or 0.1% DMSO in the proliferation medium for two days. […] Photographs were captured by fluorescence microscope.
To test the effect of BHDPC on primary OPC culture, OPCs were treated with BHDPC for 48 h and the cell viability was determined using MTT assay. […]

[2] = tested on: primary cortical neurons; assay: MPP+-induced neuronal death in primary cortical neurons (LDH release); assay type: cell-based, rat; settings: 2 h pre-treatment, 200 μM MPP+ 24 h
Description: Primary culture of cortical neurons was prepared from embryonic day 18±0.5 Sprague-Dawley rats. One day after seeding, primary cortical neurons were treated with 10 and 30 μM BHDPC for 14 days. Fourteen days following BHDPC treatment, primary cortical neurons cultured on glass coverslips (Thermo Scientific) were fixed with 4% paraformaldehyde for 15 min. Following fixation, neurons were permeabilized with 0.1% Triton X-100 in Tris-buffered saline for 7 min, and blocked with 4% bovine serum albumin and 2% goat serum for 1 h. α-tubulin and MAP2 were incubated at 1:400 dilution for 1 h at room temperature and overnight at 4° C. respectively. Following primary antibody incubation, neurons were incubated with Alexa Flour 488 or 568 secondary antibodies (anti-rabbit or anti-mouse) at 1:400 dilution for 1 h at room temperature. […] Fluorescence intensity was measured using Image J.
Cell cytotoxicity was also determined by measuring the activity of LDH released into the incubation medium when cellular membranes were damaged. […] After treatment, the released LDH activity in the medium was measured according to the instructions of the Cytotoxicity Detection Kit (Roche Applied Science, Mannheim, Germany). Absorbance at 490 nm was measured using SpectraMax M5. […]
LDH release was measured at 24 hours after the MPP^+ challenge.

[3] = tested on: zebrafish; assay: MPTP-induced dopaminergic neuron loss in zebrafish (TH whole-mount immunostaining); assay type: in vivo, Danio rerio; settings: for TH+ density, percentage of the control group: 360 μM MPTP 48 h, 1 dpf zebrafish
Description: Zebrafish at 1 dpf were exposed to BHDPC (3, 10, 30 μM) with or without MPTP for 48 h. Then fish were fixed for whole mount immunostaining. The morphology change of dopaminergic neurons in zebrafish brain was indicated by immunostaining with antibody against tyrosine hydroxylase (TH). Statistical analysis of TH density was accessed in each 10 fish/group. […] Zebrafish at 1 dpf were exposed to different concentrations of BHDPC with or without MPTP for 48 h. Then fish were fixed for whole mount immunostaining.
The AB strain of wild type zebrafish (Danio rerio) was maintained as described in the Zebrafish Handbook. Zebrafish were staged by days post fertilization […]. For breeding, groups of male and female (3:2) adult zebrafish were placed in 10-L plastic aquarium equipped with spawning nets in the evening. In the following morning, eggs were collected from the breeding group tanks. Normally developed fertilized eggs were selected under a stereomicroscope for further studies. The MPTP manipulation was performed with appropriate safety precautions and all MPTP-containing water was bleached.
Whole-mount immunostaining in zebrafish was performed as previously described. 3 dpf Zebrafish larvae were fixed with 4% paraformaldehyde in PBS for 30 min, […] (TH) staining was performed as previously described. Briefly, zebrafish were fixed in 4% paraformaldehyde in PBS for 5 h. Fixed samples were blocked (2% lamb serum and 0.1% BSA in PBST) for 1 h at room temperature. A mouse monoclonal anti-tyrosine hydroxylase (TH) antibody (Millipore, Billerica, MD, USA) was used as the primary antibody and incubated with samples overnight at 4° C. On the next day, samples were washed six times with PBST (each wash lasted 30 min), followed by incubation with Alexa Fluor® 488 goat anti-mouse antibodies. After immunostaining, zebrafish were mounted with 3.5% methylcellulose and photographed. Semi-quantification of the area of TH^+ cells was assessed by an investigator, unaware of the drug treatment, using Image-J software. Results are expressed as percentage of area of TH^+ cells in untreated normal control groups.
In this example, the in vivo animal model was used to determine the neuroprotective effect of BHDPC. Anti-tyrosine hydroxylase (TH) whole mount immunostaining was used to determine dopaminergic neuronal populations in zebrafish larvae (FIG. 15A). TH activity is the key enzyme responsible for dopamine biosynthesis in the CNS. […] The dopamine reuptake inhibitor nomifensine (Nom), which protected against MPTP-induced neurotoxicity in vivo was used as a positive control. The treatment of larvae with 30 μM of nomifensine, a positive control drug attenuated MPTP-induced neurotoxicity, with TH^+ density […] by 30% compared to the MPTP group.
L-deprenyl, which is a substituted phenethylamine used in treatment of early Parkinson's disease, was used as a positive control.

Compound: COc1cc(C2C(C(=O)OCc3ccccc3)=C(C)Nc3nnnn32)ccc1O (centres unmarked) [BHDPC, benzyl 7-(4-hydroxy-3-methoxyphenyl)-5-methyl-4,7-dihydrotetrazolo[1,5-a]pyrimidine-6-carboxylate]
- ratio of EdU+/oligo2 cells ([1]; 30 μM): increased
- ratio of Ki67+/oligo2 cells [1]: increased
- MPP+-induced neuronal death (LDH release) [2]: prevented MPP^+-induced neuronal death
- TH+ density, percentage of the control group ([3]; 3 μM): 66%
- TH+ density, percentage of the control group ([3]; 10 μM): 74%
- TH+ density, percentage of the control group ([3]; 30 μM): 90%
- MPTP-induced TH+ density decrease (FIG. 15B) ([3]; 3 and 10 μM, MPTP 48 h, dose-dependent): rescue dramatically; also recorded: protected against MPTP-induced DA neuron loss
- toxicity in the vital organs ([3]; BHDPC treated zebrafish compared to control groups): No toxicity was observed
